# Test results: ChEMBL document CHEMBL4417621, “Methods to identify tas2r modulators” (2013)
# Legend:
# Assay type in all cases: functional, cell-based
# [1] = target: T1, Taste receptor type 2 member 31 (Homo sapiens) (UniProt P59538); assay: Activation of full-length human TAS2R44 expressed in HEK293T/Galpha16-gustducin 44 cells assessed as effect on calcium flux by measuring deltaF/F0 ratio at 12.5 mM by Fluo-4 dye based FLIPR assay (reference value: […] +/ - 0.014)
# T1 sequence (whole entry): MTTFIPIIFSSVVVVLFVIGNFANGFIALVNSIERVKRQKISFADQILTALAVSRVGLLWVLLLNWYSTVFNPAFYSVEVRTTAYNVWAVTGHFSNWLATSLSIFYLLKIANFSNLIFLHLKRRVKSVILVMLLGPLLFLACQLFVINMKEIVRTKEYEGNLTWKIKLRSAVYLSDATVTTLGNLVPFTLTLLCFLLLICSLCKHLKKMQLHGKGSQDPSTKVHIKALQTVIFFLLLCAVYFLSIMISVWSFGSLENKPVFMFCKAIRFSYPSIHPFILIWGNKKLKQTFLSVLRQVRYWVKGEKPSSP
# [2] = target: T1, Taste receptor type 2 member 31 (Homo sapiens); assay: Activation of full-length human TAS2R44 expressed in HEK293T/Galpha16-gustducin 44 cells assessed as effect on calcium flux by measuring deltaF/F0 ratio at 1.5625 mM by Fluo-4 dye based FLIPR assay (reference value: 0.017 +/ - 0.008)
# [3] = target: T2, Taste receptor type 2 member 1 (Homo sapiens) (UniProt Q9NYW7); assay: Activation of full-length human TAS2R1 expressed in HEK293T/Galpha16-gustducin 44 cells assessed as effect on calcium flux by measuring deltaF/F0 ratio at 100 mM by Fluo-4 dye based FLIPR assay
# T2 sequence (whole entry): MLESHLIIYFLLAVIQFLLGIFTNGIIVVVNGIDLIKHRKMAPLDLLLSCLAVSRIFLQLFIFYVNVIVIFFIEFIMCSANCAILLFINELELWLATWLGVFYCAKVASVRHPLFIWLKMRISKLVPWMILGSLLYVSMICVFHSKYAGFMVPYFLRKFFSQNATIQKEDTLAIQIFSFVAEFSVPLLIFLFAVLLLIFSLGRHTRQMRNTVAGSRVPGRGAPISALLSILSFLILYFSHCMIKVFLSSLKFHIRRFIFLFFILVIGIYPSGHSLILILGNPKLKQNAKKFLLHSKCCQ
# [4] = target: T2, Taste receptor type 2 member 1 (Homo sapiens); assay: Activation of full-length human TAS2R1 expressed in HEK293T/Galpha16-gustducin 44 cells assessed as effect on calcium flux by measuring deltaF/F0 ratio at 1.5625 mM by Fluo-4 dye based FLIPR assay
# [5] = target: T3, Taste receptor type 2 member 10 (Homo sapiens) (UniProt Q9NYW0); assay: Activation of full-length human TAS2R10 expressed in HEK293T/Galpha16-gustducin 44 cells assessed as effect on calcium flux by measuring deltaF/F0 ratio at 25 mM by Fluo-4 dye based FLIPR assay
# T3 sequence (whole entry): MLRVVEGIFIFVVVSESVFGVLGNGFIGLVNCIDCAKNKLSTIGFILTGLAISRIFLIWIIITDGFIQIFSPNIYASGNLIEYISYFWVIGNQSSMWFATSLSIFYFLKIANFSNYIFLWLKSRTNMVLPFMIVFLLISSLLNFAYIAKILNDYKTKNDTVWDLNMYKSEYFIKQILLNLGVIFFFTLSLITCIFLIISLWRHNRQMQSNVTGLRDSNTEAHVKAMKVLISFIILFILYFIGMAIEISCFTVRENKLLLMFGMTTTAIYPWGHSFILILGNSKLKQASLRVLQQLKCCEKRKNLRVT
# [6] = target: T4, Taste receptor type 2 member 46 (Homo sapiens) (UniProt P59540); assay: Activation of full-length human TAS2R46 expressed in HEK293T/Galpha16-gustducin 44 cells assessed as effect on calcium flux by measuring deltaF/F0 ratio at 50 mM by Fluo-4 dye based FLIPR assay
# T4 sequence (whole entry): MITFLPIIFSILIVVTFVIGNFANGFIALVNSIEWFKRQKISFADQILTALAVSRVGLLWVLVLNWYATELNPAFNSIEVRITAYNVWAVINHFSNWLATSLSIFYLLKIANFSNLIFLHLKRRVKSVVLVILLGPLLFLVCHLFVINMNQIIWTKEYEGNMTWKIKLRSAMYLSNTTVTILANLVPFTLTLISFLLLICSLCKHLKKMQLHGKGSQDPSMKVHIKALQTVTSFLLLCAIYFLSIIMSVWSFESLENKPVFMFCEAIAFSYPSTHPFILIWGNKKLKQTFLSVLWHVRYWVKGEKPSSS
# [7] = target: T4, Taste receptor type 2 member 46 (Homo sapiens); assay: Activation of full-length human TAS2R46 expressed in HEK293T/Galpha16-gustducin 44 cells assessed as effect on calcium flux by measuring deltaF/F0 ratio at 25 mM by Fluo-4 dye based FLIPR assay
# [8] = target: T4, Taste receptor type 2 member 46 (Homo sapiens); assay: Activation of full-length human TAS2R46 expressed in HEK293T/Galpha16-gustducin 44 cells assessed as effect on calcium flux by measuring deltaF/F0 ratio by Fluo-4 dye based FLIPR assay
compound,measurement,setting,value
OC[C@H]1O[C@H](O[C@]2(CCl)O[C@H](CCl)[C@@H](O)[C@@H]2O)[C@H](O)[C@@H](O)[C@H]1Cl [SUCRALOSE],Ratio,[1],0.109
same,Ratio,[2],0.026
same,Ratio,[3],0.518
same,Ratio,[4],0.047
same,Ratio,[5],0.087
same,Ratio,[6],0.171
same,Ratio,[7],0.106
same,Activity,[8],Dose-dependent effect
